Measurements published in US12281079B2, “Quinoline derivatives, processes for their preparation and uses thereof for the treatment of cancer” (Lead Discovery Center GmbH, priority 2019, dated 2025).

Assays:
[1] = molecular target: mitochondrial RNA polymerase (POLRMT) (Mus musculus, UniProt Q8BKF1); experiment: Homogeneous TR-FRET assay for mitochondrial transcription activity; format: biochemical; conditions: homogeneous TR-FRET assay according to Example 4
Description: The TR-FRET assay was basically conducted as described in WO2016/193231A1, especially as described in example 1 (hereby incorporated by reference). With respect to the back ground of the mitochondrial transcription it is referred to Falkenberg et al. (2002) and Posse et al. (Posse et al., 2015). The method monitors the activity of mitochondrial RNA-polymerase via detection of the formation of its product, a 407 bp long RNA sequence. Detection of the product is facilitated by hybridization of two DNA-oligonucleotide probes to specific and adjacent sequences within the RNA product sequence. Upon annealing of the probes, two fluorophores that are coupled directly to an acceptor nucleotide probe (ATT0647, 5′) or introduced via a coupled streptavidin interacting with a biotinylated donor nucleotide probe on the other side (Europium cryptate, 3′) are brought into sufficient proximity to serve as a fluorescence-donor-acceptor pair as generally described in Walters and Namchuk (2003). Thus, a FRET signal at 665 nm is generated upon excitation at 340 nm.
Briefly, the protocol described here was applied for screening and activity determination in a low-volume 384-well microtiter plate with non-binding surface. For high-throughput application in the 1536-well microtiter plate format, volumes of the reagent mixes were adjusted, maintaining the volumetric ratio. Proteins POLRMT (NM_172551.3), TFAM (NM_009360.4) and TFB2M (NM_008249.4) were diluted from their stocks to working concentrations of 150 nM, 1.8 μM and 330 nM respectively, in a dilution buffer containing 100 mM Tris-HCl pH 8.0, 200 mM NaCl, 10% (v/v) glycerole, 2 mM glutathione (GSH), 0.5 mM EDTA and 0.1 mg/mL BSA. Protein dilutions and template DNA, comprising a pUC18 plasmid encoding the mitochondrial light strand promoter, restriction linearized proximal to the promoter 3′-end (pUC-LSP), were mixed at the twofold final assay-concentration in a reaction buffer, containing 10 mM Tris-HCl pH 7.5, 10 mM MgCl2, 40 mM NaCl, 2 mM GSH, 0.01% (w/v) Tween-20 and 0.1 mg/mL BSA.
5 μL of this mix were dispensed, depending on the chosen microtiter plate format, using multi-channel pipettes or a Multidrop® dispenser (Thermo Fisher Scientific, Waltham Mass.) into the wells of a microtiter plate and incubated at room temperature (rt) for 10 min. Chemical compounds under scrutiny in the assay were applied using contact-free acoustic droplet-dispensing (Echo520® Labcyte Inc., Sunnyvale Calif.) from 10 mM compound stocks in 100% DMSO, to a final concentration of 10 μM or in serial dilution series of the required concentration range. Equal amounts of DMSO without any compound were added to positive control samples, followed by an incubation step at rt for 10 min.
The enzymatic reaction was started by the addition of 5 μL of a mix of dNTPs in reaction buffer to a final concentration of 500 μM each. No nucleotide mix was added to negative control samples. The content of the wells was mixed using a VarioTeleshaker™ (Thermo Fisher Scientific, Waltham Mass.) at 1500 rpm for 45 sec after which the microtiter plate was centrifuged at 500×g for 1 min. The samples were incubated for 2 h at rt with humidity control to avoid evaporation. The detection reagents were prepared in a buffer that was composed, such that the enzymatic reaction was terminated due to chelating of Mg-ions and increased ionic strength, containing 50 mM Tris-HCl pH 7.5, 700 mM NaCl, 20 mM EDTA, and 0.01% (w/v) Tween-20. Importantly Eu-cryptate-coupled streptavidin had to be preincubated with a 100-fold molar excess of a random sequence oligonucleotide for 10 min at rt in the dark to block unspecific binding of single stranded RNA to the protein. Subsequently, the blocked streptavidin(-Eu) was mixed with the DNA-probes on ice and kept away from light until use. […]

[2] = tested on: mitochondrial transcription (7S RNA) in HeLa cells; experiment: Quantitative real time-PCR assay of inhibition of mitochondrial transcription (7S RNA) in HeLa cells; format: cell-based; conditions: Homo sapiens, 4 h compound incubation, according to Example 5, read-out: cellular qPCR assay
Procedure: Quantitative real-time PCR (qRT-PCR), based on the TaqMan™ (Thermo Fisher Scientific, Waltham Mass.) technology, was carried out essentially as described in Held et al. (1996). HeLa cells were plated one day before compound treatment in RPMI medium supplemented with 10% Fetal Calf Serum and 2 mM L-glutamine. Cells were incubated with dilution series of compounds or vehicle (DMSO) for 4 h, prior to harvest and extraction of the RNA using the RNeasy Mini Kit (Qiagen, Hilden D), according to the manufacturer's instructions. RNA concentrations were measured spectroscopically, using a NanoDrop-2000 (Thermo Fisher Scientific, Waltham Mass.) and normalized prior to cDNA synthesis, using a ‘High-Capacity cDNA Reverse Transcription Kit’ (Thermo Fisher Scientific, Waltham Mass.). qRT-PCR was carried out using the ‘TaqMan Fast Advance Master Mix’ (Thermo Fisher Scientific, Waltham Mass.) on a 7500 Fast Real-Time PCR machine (Applied Biosystems, Foster City Calif.)
For these measurements, three genes were used to compare the effect of the scrutinized compounds in relation to their concentration. The POLRMT-gene was used to detect potential influences on nuclear transcription. Mitochondrial transcription in vivo was monitored by measurements 7S RNA. The TBP (TATA-box binding protein) gene was employed as the control (housekeeping gene) during qRT-PCR. The short-lived mitochondrial 7S RNA, which is not post-transcriptionally stabilized, allowed us to monitor rapid changes in mitochondrial transcription activity following compound addition. Biological triplicates were analyzed using the comparative CT Method (ΔΔCt) method (Bubner and Baldwin, 2004) and reported as Rq % values (Rq=Relative quantification=2−ΔΔCt).

Sequence of mitochondrial RNA polymerase (POLRMT) (Q8BKF1 42-1207): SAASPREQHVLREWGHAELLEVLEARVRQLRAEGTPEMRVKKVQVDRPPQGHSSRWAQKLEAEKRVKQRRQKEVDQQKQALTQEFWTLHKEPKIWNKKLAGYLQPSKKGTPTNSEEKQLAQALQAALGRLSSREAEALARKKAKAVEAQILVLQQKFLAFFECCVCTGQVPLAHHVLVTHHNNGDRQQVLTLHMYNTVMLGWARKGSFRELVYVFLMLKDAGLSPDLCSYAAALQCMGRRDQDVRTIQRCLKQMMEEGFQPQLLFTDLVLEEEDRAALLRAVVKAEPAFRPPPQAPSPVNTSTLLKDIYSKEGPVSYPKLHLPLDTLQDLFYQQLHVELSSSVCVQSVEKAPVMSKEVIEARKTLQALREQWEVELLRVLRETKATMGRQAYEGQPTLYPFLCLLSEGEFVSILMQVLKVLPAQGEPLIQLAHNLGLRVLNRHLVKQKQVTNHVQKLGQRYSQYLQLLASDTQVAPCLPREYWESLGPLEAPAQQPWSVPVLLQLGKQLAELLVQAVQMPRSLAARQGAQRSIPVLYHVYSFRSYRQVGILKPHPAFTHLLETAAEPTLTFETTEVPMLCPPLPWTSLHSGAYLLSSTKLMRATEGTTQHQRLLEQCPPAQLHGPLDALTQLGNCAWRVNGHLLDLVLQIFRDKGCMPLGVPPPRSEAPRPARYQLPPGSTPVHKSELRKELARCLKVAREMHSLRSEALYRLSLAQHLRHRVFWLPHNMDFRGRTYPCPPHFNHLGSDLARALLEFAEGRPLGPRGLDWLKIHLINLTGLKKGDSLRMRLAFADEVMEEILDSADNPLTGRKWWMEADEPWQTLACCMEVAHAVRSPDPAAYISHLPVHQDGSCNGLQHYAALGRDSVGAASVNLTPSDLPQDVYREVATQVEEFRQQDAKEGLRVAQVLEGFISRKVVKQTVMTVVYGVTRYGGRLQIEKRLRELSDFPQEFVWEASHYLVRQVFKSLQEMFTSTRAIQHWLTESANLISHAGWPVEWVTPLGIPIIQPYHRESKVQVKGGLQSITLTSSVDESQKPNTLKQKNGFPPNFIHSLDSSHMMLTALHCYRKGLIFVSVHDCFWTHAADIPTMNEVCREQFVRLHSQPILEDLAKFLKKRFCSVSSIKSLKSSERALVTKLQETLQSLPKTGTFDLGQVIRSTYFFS

Row | SMILES | IC50 [1] | IC50 [2]
1 | Cc1ccccc1-c1cc(Cl)nc2cc(O[C@H](C)C(=O)OC(C)(C)C)ccc12 [Compound 73, tert-butyl (2R)-2-[[2-chloro-4-(o-tolyl)-7-quinolyl]oxy]propanoate] | 100 to 1000 nM | 50 to 500 nM
2 | CC(Oc1ccc2c(-c3ccc(F)cc3Cl)ccnc2n1)C(=O)N1CCC[C@H](CC(=O)O)C1 (mixture of isomers) [Compound 80, 2-[rac-(3R)-1-[2-[[5-(2-chloro-4-fluoro-phenyl)-1,8-naphthyridin-2-yl]oxy]propanoyl]-3-piperidyl]acetic acid] | 1000 to 10000 nM | 50 to 500 nM
3 | C[C@@H](Oc1ccc2c(-c3ccc(F)cc3Cl)ccnc2c1)C(=O)N1CCOCC1 [Compound 206, (2R)-2-[[4-(2-chloro-4-fluoro-phenyl)-7-quinolyl]oxy]-1-morpholino-propan-1-one] | 100 to 1000 nM | 10 to 50 nM
4 | CC(=O)N(O)[C@H]1CCCN(C(=O)[C@@H](C)Oc2ccc3c(-c4ccc(F)cc4Cl)ccnc3c2)C1 [Compound 209, N-hydroxy-N-[(3S)-1-[(2R)-2-[[4-(2-chloro-4-fluoro-phenyl)-7-quinolyl]oxy]propanoyl]-3-piperidyl]acetamide] | 100 to 1000 nM | 10 to 50 nM
5 | CC(C)NC(=O)C(C)Oc1ccc2c(-c3ccc(F)cc3Cl)ccnc2n1 (racemic) [Compound 109, 2-[[5-(2-chloro-4-fluoro-phenyl)-1,8-naphthyridin-2-yl]oxy]-N-isopropyl-propanamide] | 1000 to 10000 nM | –
6 | CC(C)(Oc1ccc2c(-c3ccccc3Cl)ccnc2c1)C(=O)N1CCC[C@H](CC(=O)O)C1 [Compound 139, 2-[(3R)-1-[2-[[4-(2-chlorophenyl)-7-quinolyl]oxy]-2-methyl-propanoyl]-3-piperidyl]acetic acid] | 1000 to 10000 nM | –
7 | C[C@H](Oc1ccc2c(-c3ccccc3Cl)ccnc2c1)C(=O)N1CCC[C@@H](C(=O)O)C1 [Compound 102, (3R)-1-[(2S)-2-[[4-(2-chlorophenyl)-7-quinolyl]oxy]propanoyl]piperidine-3-carboxylic acid] | 1000 to 10000 nM | –
8 | C[C@@H](Oc1ccc2c(-c3ccccc3Cl)ccnc2c1)C(=O)O [Compound 103, (2R)-2-[[4-(2-chlorophenyl)-7-quinolyl]oxy]propanoic acid] | 1000 to 10000 nM | –
9 | CC(C)c1ccccc1-c1ccnc2cc(O[C@H](C)C(=O)N3CCC[C@H](CC(=O)O)C3)ccc12 [Compound 122, 2-[(3R)-1-[(2R)-2-[[4-(2-isopropylphenyl)-7-quinolyl]oxy]propanoyl]-3-piperidyl]acetic acid] | 1000 to 10000 nM | –
10 | C[C@@H](Oc1ccc2c(-c3ccccc3Cl)cc(F)nc2c1)C(=O)O [Compound 90, (2R)-2-[[4-(2-chlorophenyl)-2-fluoro-7-quinolyl]oxy]propanoic acid] | 1000 to 10000 nM | –
11 | CCOC(=O)[C@H]1CCN(C(=O)[C@@H](C)Oc2ccc3c(-c4ccc(F)cc4Cl)ccnc3c2)C1 [Compound 75, ethyl (3S)-1-[(2R)-2-[[4-(2-chloro-4-fluoro-phenyl)-7-quinolyl]oxy]propanoyl]pyrrolidine-3-carboxylate] | 100 to 1000 nM | –
12 | Cc1ccsc1-c1ccnc2cc(O[C@H](C)C(=O)N3CCC[C@H](CC(=O)O)C3)ccc12 [Compound 134, 2-[(3R)-1-[(2R)-2-[[4-(3-methyl-2-thienyl)-7-quinolyl]oxy]propanoyl]-3-piperidyl]acetic acid] | 1000 to 10000 nM | –
13 | CCOC(=O)C[C@@H]1CCCN(C(=O)[C@@H](C)Oc2ccc3c(-c4ccc(F)cc4Cl)ccnc3c2)C1 [Compound 89, ethyl 2-[(3S)-1-[(2R)-2-[[4-(2-chloro-4-fluoro-phenyl)-7-quinolyl]oxy]propanoyl]-3-piperidyl]acetate] | 1000 to 10000 nM | –
14 | CC(Oc1ccc2c(-c3ccccc3Cl)ccnc2c1)C(=O)N1CCC[C@H](C(=O)O)C1 (mixture of isomers) [Compound 23, rac-(3S)-1-[2-[[4-(2-chlorophenyl)-7-quinolyl]oxy]propanoyl]piperidine-3-carboxylic acid] | 20 to 100 nM | –

Other lines, results leading:

Row | IC50 [1] | IC50 [2] | SMILES
15 | 100 to 1000 nM | 10 to 50 nM | CCC(=O)N1CCN(C(=O)[C@@H](C)Oc2ccc3c(-c4ccc(F)cc4Cl)ccnc3c2)CC1 [Compound 28, (R)-2-((4-(2-chloro-4-fluorophenyl)quinolin-7-yl)oxy)-1-(4-propionylpiperazin-1-yl)propan-1-one]
16 | < 20 nM | < 10 nM | Cc1cccc(C)c1-c1ccnc2cc(O[C@H](C)C(=O)N3CCC[C@H](C(=O)O)C3)ccc12 [Compound 2, (3S)-1-[(2R)-2-[[4-(2,6-dimethylphenyl)-7-quinolyl]oxy]propanoyl]piperidine-3-carboxylic acid]
17 | 1000 to 10000 nM | – | CCOC(=O)[C@H]1CCCN(C(=O)[C@@H](C)Oc2ccc3c(-c4ccc(F)cc4C)cc(Cl)nc3c2)C1 [Compound 94, ethyl (3S)-1-[(2R)-2-[[2-chloro-4-(4-fluoro-2-methyl-phenyl)-7-quinolyl]oxy]propanoyl]piperidine-3-carboxylate]
18 | 100 to 1000 nM | – | COC(=O)C1CC(NC(=O)[C@@H](C)Oc2ccc3c(-c4ccc(F)cc4Cl)ccnc3c2)C1 (stereo partly drawn) [Compound 54, methyl 3-[[(2R)-2-[[4-(2-chloro-4-fluoro-phenyl)-7-quinolyl]oxy]propanoyl]amino]cyclobutanecarboxylate]
19 | 1000 to 10000 nM | – | C[C@@H](Oc1ccc2c(-c3ccc(F)cc3Cl)cc(Cl)nc2c1)C(=O)N1CCCCC1 [Compound 107, (2R)-2-[[2-chloro-4-(2-chloro-4-fluoro-phenyl)-7-quinolyl]oxy]-1-(1-piperidyl)propan-1-one]
20 | 1000 to 10000 nM | – | COC(=O)C1CC(NC(=O)[C@@H](C)Oc2ccc3c(-c4ccccc4Cl)cc(Cl)nc3c2)C1 (stereo partly drawn) [Compound 97, methyl 3-[[(2R)-2-[[2-chloro-4-(2-chlorophenyl)-7-quinolyl]oxy]propanoyl]amino]cyclobutanecarboxylate]
21 | 20 to 100 nM | – | C#Cc1ccccc1-c1ccnc2cc(O[C@H](C)C(=O)N3CCC[C@H](CC(=O)O)C3)ccc12 [Compound 144, 2-[(3R)-1-[(2R)-2-[[4-(2-ethynylphenyl)-7-quinolyl]oxy]propanoyl]-3-piperidyl]acetic acid]
22 | < 20 nM | – | Cc1cccc(C)c1-c1ccnc2cc(O[C@H](C)C(=O)N3CCC[C@H](S(N)(=O)=O)C3)ccc12 [Compound 138, (3S)-1-[(2R)-2-[[4-(2,6-dimethylphenyl)-7-quinolyl]oxy]propanoyl]piperidine-3-sulfonamide]
